# Source: US20260000708A1, “Copper Hydrogel Beads as a Diet Supplement” (Texas Tech University System, priority 2021, published 2026)
# System: Salmonella
# Experiment: Time-release formulation compared to copper sulfate alone against Salmonella cells in vitro
# Format: cell-based
# Conditions: after application (FIG. 3)
smiles,measurement,value
O=S(=O)([O-])[O-].[Cu+2] [copper sulfate],Duration of effectiveness against Salmonella,only effective for a short time
